Source: ChEMBL document CHEMBL5150055, “B-cell Lymphoma 6 Inhibitors: Current Advances and Prospects of Drug Development for Diffuse Large B-cell Lymphomas” (J Med Chem, 2022)
Converted amounts (≈) assume the structure as drawn.

Key:
[1] = molecular target: T1, B-cell lymphoma 6 protein (Homo sapiens, UniProt P41182); assay: Binding affinity to BCL6 BTB domain (5 to 129 residues) (unknown origin) expressed in Escherichia coli by SPR analysis
[2] = molecular target: T1, B-cell lymphoma 6 protein; assay: Binding affinity to BCL6 BTB domain (5 to 129 residues) (unknown origin) expressed in Escherichia coli using 5-TAMRA-RSEIISTAPSSWVVPGP as substrate incubated for 1 hrs by FP assay
[3] = molecular target: T1, B-cell lymphoma 6 protein; assay: Binding affinity to BCL6 (unknown origin) assessed as ratio of Kinact/Ki incubated for 4 hrs by IPC assay
[4] = Aqueous solubility of compound; format: physicochemical; conditions: buffer
[5] = molecular target: T1, B-cell lymphoma 6 protein; assay: Binding affinity to wild type full length BCL6 BTB domain having SMRT BBD motif sequence (unknown origin) transfected in human HEK293 cells by electrophoretic mobility shift assay; format: cell-based
OCI-Ly1 = assay: Antiproliferative activity against human OCI-Ly1 cells assessed as growth inhbition by measuring metabolic viability incubated for 48 hrs by fluorometric resazurin reduction method; format: functional, cell-based; conditions: OCI-Ly1, 48 h
OCI-Ly10 = assay: Antiproliferative activity against human OCI-Ly10 cells assessed as growth inhbition by measuring metabolic viability incubated for 48 hrs by fluorometric resazurin reduction method; format: functional, cell-based; conditions: OCI-Ly10, 48 h
[6] = Binding affinity to wild type full length BCL6 BTB domain SMRT BBD motif sequence mutant (unknown origin) transfected in human HEK293 cells by electrophoretic mobility shift assay; format: cell-based
OCI-Ly7 [7] = assay: Antiproliferative activity against human OCILY7 cells assessed as growth inhbition by measuring metabolic viability incubated for 48 hrs by fluorometric resazurin reduction method; format: functional, cell-based; conditions: OCI-Ly7, 48 h
[8] = molecular target: T1, B-cell lymphoma 6 protein; assay: Displacement AF647-BCOR peptide from human BCL6 BTB-POZ domain incubated for 60 mins by TR-FRET assay
[9] = molecular target: T1, B-cell lymphoma 6 protein; assay: Inhibition of D2-SMRT peptide binding to human BCL6 BTB-POZ domain incubated for 60 mins by TR-FRET assay
[10] = molecular target: T1, B-cell lymphoma 6 protein; assay: Displacement AF647-NCOR peptide from human BCL6 BTB-POZ domain incubated for 60 mins by TR-FRET assay
SUD4 = assay: Antitumor activity against BCL6 dependent human SU-DHL-4 cells assessed as cell growth inhibition; format: functional, cell-based
SU-DHL-6 = assay: Antitumor activity against BCL6 dependent human SU-DHL-6 cells assessed as cell growth inhibition; format: functional, cell-based
DOHH-2 = assay: Antitumor activity against BCL6 dependent human DOHH-2 cells assessed as cell growth inhibition; format: functional, cell-based
[11] = molecular target: T1, B-cell lymphoma 6 protein; assay: Binding affinity to BCL6 BTB domain (unknown origin) by SPR analysis
L02 = assay: Antitumor activity against human L02 cells assessed as cell growth inhibition; format: functional, cell-based
Farage = assay: Antitumor activity against BCL6 dependent human Farage cells assessed as cell growth inhibition; format: functional, cell-based
[12] = molecular target: T1, B-cell lymphoma 6 protein; assay: Inhibition of BCL6 (unknown origin) by HTRF assay
OCI-Ly7 [13] = assay: Antitumor activity against BCL6 dependent human OCILY7 cells assessed as cell growth inhibition; format: functional, cell-based

Cc1cc(C)n(-c2ncc(Cl)c(Nc3ccc(Cl)cc3)n2)n1
Kd [1]: 20 µM | Kd [2]: 18 µM

CCC(=O)NCCN1C(=O)C(CCCCNC(=O)CCl)Oc2cc(Nc3cc(OC4CCOCC4)c([N+](=O)[O-])cc3Cl)ccc21 (stereo unspecified)
Ratio [3]: 1.9 10^4/M/s

C[C@@H](NC(=O)COC(=O)CCN1C(=O)/C(=C2/C(=O)Nc3ccc(Cl)cc32)SC1=S)C(=O)N[C@@H](CCC(=O)O)C(=O)O
solubility [4]: 0.218 µg/mL (≈ 0.348 µM)

H-HHHHHHPTATHAGLVATVKEAGRSIHEI-OH
Kd [5]: 10.2 µM | IC50 (OCI-Ly1): 11.3 µM | IC50 (OCI-Ly10): 11.3 µM | Kd [6]: 148 µM | IC50 (OCI-Ly7 [7]): 11.3 µM

Cc1ncccc1[C@H]1C[C@@H](c2cccc3nc(N)ccc23)Nc2c(F)cnn21
IC50 [8]: 0.0251 µM | IC50 [9]: 0.01 µM | IC50 [10]: 0.0251 µM

O=C(CCl)NCCCCn1c(=O)[nH]c2ccc(Nc3ccc([N+](=O)[O-])cc3Cl)cc21
Ratio [3]: 3 10^1/M/s

C[C@@H]1CN(c2ncc(F)c(Nc3ccc(NC(=O)c4cccc(Br)n4)cc3)n2)C[C@H](C)N1
IC50 (SUD4): 1.39 µM | IC50 (SU-DHL-6): 1.1 µM | IC50 (DOHH-2): 1.1 µM | Kd [11]: 1.61 µM | IC50 (L02): 21.6 µM | IC50 (Farage): 1.1 µM | Kd [12]: 1.37 µM | IC50 (OCI-Ly7 [13]): 1.1 µM
